Reference: article PMC8121805, “Discovery of first-in-class inhibitors of ASH1L histone methyltransferase with anti-leukemic activity” (Nature Communications, 2021)
“And” between values parts separate entries of the source, which are not always exact repeats. Equal values may be shown once. “Also recorded” adds a separate entry of the source.

Experiments:
[1] = tested on: MOLM13 cells; assay: MTT cell viability assay; type: cell-based, human; settings: Fig S7b
Description: (§1) FBS and 1% penicillin/streptomycin. […] Media was changed on day 3 or 4 and compounds were resupplied. […] Cell suspensions (100 μL) were transferred to the 96-well plates for each sample in quadruplicate at the time of media change. At day 7, 10 µL of MTT reagent (M6494, Molecular Probes™) was added to each well of the 96 well plate and incubated at 37 °C for 4 h. The formazan was then solubilized by adding 100 µL acidified 10% SDS solution and incubated at 37 °C overnight. Plates were read for absorbance at 570 nm using a PHERAstar BMG microplate reader. The experiments were performed two times in quadruplicates with calculation of mean and SD for each condition. Data were analyzed in Prism 8.0.0 to obtain GI50 values.
(§2) Supplementary Figure 7. […] (a)
(§3) Titration curves from the MTT cell viability assay performed after 4, 7, and 11 (or 10) days of
(§4) Titration curves from the MTT cell viability assay performed after 7 days of treatment of KOPN8 ,
(§5) MOLM13 and MV4;11 cell lines harboring MLL1 translocation (MLL1-r) or K562 cell line (non-
(§6) Representative graphs are shown
(§7) from two independent MTT experiments performed for each cell line.

[2] = tested on: MV4;11 cells; assay: MTT cell viability assay; type: cell-based, human; settings: for MV4;11 % activity: Fig S7a
Description: as §1, §2, §3, §4, §5, §6, §7

[3] = tested on: K562 cells; assay: MTT cell viability assay; type: cell-based, human; settings: for % activity: Fig S7b
Description: (§8) Human leukemia cells K562, MV4;11 and RS4;11 (purchased from ATCC) and KOPN8, MOLM13 (purchased from DSMZ) were cultured in RPMI 1640 (Invitrogen) supplemented with 10% heat inactivated (h.i.) FBS and 1% penicillin/streptomycin (Invitrogen). SET2 cells (purchased from DSMZ) were cultured in RPMI 1640 supplemented with 20% h.i. FBS and 1% penicillin/streptomycin. Cells were plated at 1 × 10^5 to 2 × 10^5 cells/mL depending on cell line and treated with 0.25% DMSO or varying concentrations of compounds and incubated at 37 °C, 5% CO2 incubator for 7 days. Media was changed on day 3 or 4 and compounds were resupplied. […] Cell suspensions (100 μL) were transferred to the 96-well plates for each sample in quadruplicate at the time of media change. At day 7, 10 µL of MTT reagent (M6494, Molecular Probes™) was added to each well of the 96 well plate and incubated at 37 °C for 4 h. The formazan was then solubilized by adding 100 µL acidified 10% SDS solution and incubated at 37 °C overnight. Plates were read for absorbance at 570 nm using a PHERAstar BMG microplate reader. The experiments were performed two times in quadruplicates with calculation of mean and SD for each condition. Data were analyzed in Prism 8.0.0 to obtain GI50 values.
as §2, §3, §4, §5, §6
(§9) from two independent MTT experiments performed for each cell line. GI50 values correspond to […]

[4] = tested on: KOPN8 cells; assay: MTT cell viability assay; type: cell-based, human; settings: Fig S7a
Description: as §8, §2, §3, §4, §5, §6, §9

[5] = tested on: MLL leukemia cells (MV4;11, MOLM13, KOPN8, RS4;11); assay: MTT cell viability assay, MLL leukemia cells as a group; type: cell-based, human; settings: Homo sapiens, MLL leukemia cells
Description: as §8
Supplementary Figure 4. Cell viability assay for AS-6 in MLL leukemia cell lines. Titration curves from the MTT cell viability assay performed after 7 days of treatment of human MLL1- […]
replicates. Representative graphs are shown from two independent MTT experiments performed […]
as §2
Titration curves from the MTT cell viability assay performed after 4, 7, and 11 (or 10) days of […]
Titration curves from the MTT cell viability assay performed after 7 days of treatment of KOPN8 , MOLM13 and MV4;11 cell lines harboring MLL1 translocation (MLL1-r) or K562 cell line (non- […]
Representative graphs are shown from two independent MTT experiments performed for each cell line. GI50 values correspond to […]

[6] = target: T1, ASH1L SET domain (Homo sapiens, UniProt Q9NR48); assay: NMR titration (1H-15N TROSY-HSQC); type: binding; settings: linear chemical shift perturbations up to 1 mM
T1 construct: ASH1L SET domain (amino acids 2069–2288) was expressed and purified; Mocr (N, cleaved yes); made in house; host or cells: E. coli BL21(DE3)

[7] = target: T2, ASH1L S2259M (Homo sapiens, UniProt Q9NR48, S2264M); assay: NMR binding to S2259M mutant; settings: NMR chemical shift perturbations
T2 construct: ASH1L SET domain (2069–2288) in the buffer; made in house
Description: For fragment screening, we used an in-house library of 1600 fragment-like compounds with the following properties: average Mw = 183 Da (range of 84–345 Da), mean clogP = 1.5 (from −2.5 to 3.7), hydrogen bond acceptors: from 0 to 6 (median = 3), hydrogen bond donors: 0 to 3 (median = 1).
Supplementary Figure 2. Binding of ASH1L inhibitors. (a) Superposition of the H- N TROSY-HSQC spectra of 100 µM ASH1L SET with 5% DMSO (black) or with 1 mM of compound 1 (red). Most perturbed residues are marked in boxes. (b) Superposition of the crystal structure of ASH1L SET domain (4YNM in PDB) and S2259M mutant of ASH1L (4YNP in PDB). (c) Superposition of the 1H-15N TROSY-HSQC spectra of 100 µM ASH1L S2259M mutant

## NC(=S)c1cccc(-c2cn(C3CCN(S(=O)(=O)C(F)(F)F)CC3)c3cc(CNC(=O)C4CNC4)ccc23)c1 [AS-85]
[1]; MOLM-13, log[AS-85] -4.60206
  % activity: 46.6646% and 47.2766% and 46.175% and 47.0318%
[1]; MOLM-13, log[AS-85] -4.90309
  % activity: 81.426% and 94.7674% and 77.6316% and 82.4051%
[1]; MOLM-13, log[AS-85] -5.20412
  % activity: 87.0563% and 95.9914% and 92.6867% and 98.1946%
[1]; MOLM-13, log[AS-85] -5.50515
  % activity: 82.6499% and 85.9547% and 94.1555% and 88.7699%
[1]; MOLM-13, log[AS-85] -5.80618
  % activity: 80.9364% and 84.3635% and 82.1603% and 93.6659%
[1]; MOLM-13, log[AS-85] -6.10721
  % activity: 97.5826% and 103.213% and 93.6659% and 105.539%
[1]; MOLM-13, log[AS-85] -6.40824
  % activity: 70.6548% and 70.0428% and 76.1628% and 72.1236%
[2]; log[AS-85] -4.60206, d4
  MV4;11 % activity: 15.9329% and 16.3522% and 18.0892% and 16.4121%
[2]; log[AS-85] -4.60206, d7
  MV4;11 % activity: 5.045% and 5.128% and 5.211%
[2]; log[AS-85] -4.60206, d11
  MV4;11 % activity: 1.161% and 1.032% and 1.118%
[2]; log[AS-85] -4.90309, d4
  MV4;11 % activity: 70.8595% and 67.0859% and 71.758% and 64.1509%
[2]; log[AS-85] -4.90309, d7
  MV4;11 % activity: 25.0571% and 25.9705% and 23.8115% and 22.3998%
[2]; log[AS-85] -4.90309, d11
  MV4;11 % activity: 9.6743% and 10.0613% and 9.029% and 8.943%
[2]; log[AS-85] -5.20412, d4
  MV4;11 % activity: 102.965% and 99.1914% and 99.9102% and 86.1336%
[2]; log[AS-85] -5.20412, d7
  MV4;11 % activity: 53.1243% and 51.7127% and 52.7922% and 54.6191%
[2]; log[AS-85] -5.20412, d11
  MV4;11 % activity: 37.1063% and 36.8053% and 36.9343% and 41.621%
[2]; log[AS-85] -5.50515, d4
  MV4;11 % activity: 92.5427% and 88.3498% and 97.8736% and 88.7691%
[2]; log[AS-85] -5.50515, d7
  MV4;11 % activity: 76.7075% and 69.8983% and 73.8011% and 68.8188%
[2]; log[AS-85] -5.50515, d11
  MV4;11 % activity: 72.8797% and 78.2113% and 64.4953% and 71.1168%
[2]; log[AS-85] -5.80618, d11
  MV4;11 % activity: 77.7384% and 83.5429% and 90.8524%
[2]; log[AS-85] -6.10721, d4
  MV4;11 % activity: 94.4594% and 94.1599% and 94.5792% and 108.955%
[2]; log[AS-85] -6.10721, d7
  MV4;11 % activity: 101.951% and 92.1528% and 106.186% and 104.11%
[2]; log[AS-85] -6.10721, d11
  MV4;11 % activity: 89.8205% and 93.8192% and 105.127% and 95.5821%
[2]; log[AS-85] -6.40824, d4
  MV4;11 % activity: 98.1731% and 105.9% and 87.9305% and 107.996%
[2]; log[AS-85] -6.40824, d7
  MV4;11 % activity: 98.879% and 95.8896% and 100.374% and 104.858%
[2]; log[AS-85] -6.40824, d11
  MV4;11 % activity: 115.404% and 96.872% and 95.3671% and 92.3573%
[2]; Fig S7b, MV4;11, log[AS-85] -5.80618
  % activity: 90.492% and 84.4301% and 90.3259% and 90.8242%
[3]; K562, log[AS-85] -4.60206
  % activity: 94.8724% and 99.1495% and 96.3791% and 94.0462%
[3]; K562, log[AS-85] -4.90309
  % activity: 126.464% and 120.486% and 116.938% and 123.451%
[3]; K562, log[AS-85] -5.20412
  % activity: 111.154% and 105.225% and 103.767% and 109.259%
[3]; K562, log[AS-85] -5.50515
  % activity: 104.836% and 103.329% and 104.35% and 109.745%
[3]; K562, log[AS-85] -5.80618
  % activity: 94.1434% and 95.2126% and 95.6501% and 103.183%
[3]; K562, log[AS-85] -6.10721
  % activity: 95.2612% and 103.524% and 101.142% and 100.073%
[3]; K562, log[AS-85] -6.40824
  % activity: 94.0462% and 95.8931% and 100.705% and 97.4484%
[3]; leukemia cells without MLL1 translocations
  effect on growth/proliferation of K562 cells: no effect
[4]; log[AS-85] -4.60206, d4
  KOPN8 % activity: 16.3539% and 14.6687% and 8.541% and 8.847%
[4]; log[AS-85] -4.60206, d7
  KOPN8 % activity: 5.4864%
[4]; log[AS-85] -4.60206, d10
  KOPN8 % activity: 12.6028% and 11.8131% and 12.208%
[4]; log[AS-85] -4.90309, d4
  KOPN8 % activity: 78.3991% and 80.3907% and 79.1651% and 80.3906%
[4]; log[AS-85] -4.90309, d7
  KOPN8 % activity: 47.9023% and 50.2997% and 49.1932% and 51.4062%
[4]; log[AS-85] -4.90309, d10
  KOPN8 % activity: 23.001% and 25.765% and 16.1566% and 29.977%
[4]; log[AS-85] -5.20412, d4
  KOPN8 % activity: 76.2543% and 85.293% and 81.9226% and 91.2677%
[4]; log[AS-85] -5.20412, d7
  KOPN8 % activity: 72.4297% and 74.2739% and 78.5154% and 71.5076%
[4]; log[AS-85] -5.20412, d10
  KOPN8 % activity: 57.6176% and 47.8776% and 61.0398% and 75.3866%
[4]; log[AS-85] -5.50515, d4
  KOPN8 % activity: 81.7694% and 85.9058% and 95.8637% and 96.7828%
[4]; log[AS-85] -5.50515, d7
  KOPN8 % activity: 82.5726% and 92.5311% and 77.2245% and 78.5154%
[4]; log[AS-85] -5.50515, d10
  KOPN8 % activity: 103.817% and 88.6805% and 64.9885% and 80.7832%
[4]; log[AS-85] -5.80618, d4
  KOPN8 % activity: 78.2459% and 90.8081% and 100.766% and 94.0253%
[4]; log[AS-85] -5.80618, d7
  KOPN8 % activity: 80.7284% and 79.9908% and 94.5597% and 75.0115%
[4]; log[AS-85] -5.80618, d10
  KOPN8 % activity: 93.8137% and 85.6532% and 79.9934% and 79.7302%
[4]; log[AS-85] -6.10721, d4
  KOPN8 % activity: 86.825% and 91.4209% and 95.8637% and 91.5741%
[4]; log[AS-85] -6.10721, d7
  KOPN8 % activity: 99.9078% and 107.284% and 86.6298% and 85.5233%
[4]; log[AS-85] -6.10721, d10
  KOPN8 % activity: 118.032% and 101.579% and 87.2326% and 93.1556%
[4]; log[AS-85] -6.40824, d4
  KOPN8 % activity: 98.6212% and 103.37% and 102.911% and 95.0977%
[4]; log[AS-85] -6.40824, d7
  KOPN8 % activity: 100.461% and 105.072% and 99.7234% and 94.7441%
[4]; log[AS-85] -6.40824, d10
  KOPN8 % activity: 81.3096% and 91.971% and 84.7318% and 80.9148%
[5]
  GI50: 5 to 25 µM

## NC(=S)c1cccc(-n2cccc2)c1 [compound 1]
[6]
  Kd: > 1000 µM
[7]
  binding to ASH1L S2259M mutant: no binding; also recorded: not bind to the S2259M mutant
